Laboratory results reported in US20220194959A1, “CRYSTAL FORM OF EGFR INHIBITOR AND PREPARATION METHOD THEREOF” (MEDSHINE DISCOVERY INC., priority 2019, published 2022).

Experiments:
Format in all cases: physicochemical
[1] = Hygroscopicity study by dynamic vapor sorption (DVS)
Description: 1.4. Dynamic Vapor Sorption, DVS Method
Instrument model: SMS DVS Advantage dynamic vapor sorption apparatus
Test conditions: The sample (10 to 15 mg) is weighed and placed in a DVS sample pan for testing.
The detailed DVS parameters are as follows:
Equilibration: dm/dt=0.01%/min (The shortest time: 10 min, and the longest time: 180 min)
Drying: Dried for 120 min at 0% RH
RH (%) test gradient: 10%
Range of RH (%) test gradient: 0%-90%-0%
The classification of hygroscopicity evaluation is as follows:
10-15 mg of the crystal form A and the crystal form C of the compound of formula (II) were weighed and placed into a DVS sample pan for testing.

[2] = Solubility assay in media with different pHs; conditions: for Solubility (2 hours) / Solubility (24 hours): 37° C.; for Final pH: filtrate of saturated solution; for solubility at 2 h / solubility at 24 h: 37 °C, thermodynamic from solid
Description: (§1) 9 parts of 4 mg of the crystal form A of the compound of formula (II) were weighed and added to a 1.5 mL sample bottle, respectively, and then 1 mL of different media (0.1 mol/L HCl, 0.01 mol/L HCl, pH3.8 buffer solution, pH4.5 buffer solution, pH5.5 buffer solution, pH6.0 buffer solution, pH6.8 buffer solution, pH7.4 buffer solution, and water) were added, respectively. Based on the dissolution situation, the raw material compound was continuously added until a saturated solution was formed. The magnetic bar was added to the above suspension, and the suspension was placed on a magnetic stirrer (37° C., protected from light) and stirred. […] The upper layer of the sample was filtered with a filter membrane, and the pH value of the filtrate was determined. The saturated solubility of the compound was determined by HPLC.
as §1, with “C” for “A”

[3] = Stability assay under illumination, high humidity, high temperature and acceleration (related substances and crystal form); parameters: Total impurity: unit not given here; conditions: for Change of crystal form: 10 days
Description: The stability of crystal form of the crystal form A and the crystal form C of the compound of formula (II) under the conditions of illumination, high humidity (92.5% RH), high temperature (60° C.) and acceleration (40° C./75% RH) was investigated.
Illumination test chamber, model: SHH-100GD-2, conditions: 5000±500 lux (visible light) and 90 mw/cm^2 (ultraviolet).
Electrothermal blowing dry box, model: GZX-9140MBE, conditions: 60° C.
Constant temperature and humidity chamber, model: LDS-800Y, conditions: 40° C./75% RH.
Constant temperature and humidity chamber, model: SHH-250SD, conditions: 25° C., 92.5% RH.
An appropriate amount of the crystal form A of the compound of formula (II) was weighed and placed in a dry and clean weighing bottle. The sample was spread into a thin layer, and fully exposed to assay conditions (60° C., 92.5% RH, illumination) and acceleration conditions (40° C./75% RH). After 17 days, the compound was taken out and determined for related substances and crystal form. […]

[4] = 0.1 mol/L HCl, pH 1, simulated gastric fluid
[5] = pH 6.8 buffer solution, pH 6.8, aqueous buffer
[6] = pH 7.4 buffer solution, pH 7.4, aqueous buffer

SMILES: COc1cc2ncnc(Nc3cccc(Cl)c3F)c2cc1N1CC2(CN(C)C2)OC1=O.Cc1ccc(S(=O)(=O)O)cc1 [crystal form C of the compound of formula (II)]
- ΔW (weight increase by moisture absorption) ([1]; 25° C. and 80% RH): 3.697%
- Classification of hygroscopicity ([1]; 25° C., 80% RH): hygroscopic
- Solubility (2 hours) ([2]; 0.01 mol/L HCl): 5.666 mg/mL
- Solubility (24 hours) ([2]; 0.01 mol/L HCl): 2.863 mg/mL
- Solubility (2 hours) ([2]; 0.1 mol/L HCl): >10 mg/mL
- Solubility (24 hours) ([2]; 0.1 mol/L HCl): >10 mg/mL
- Solubility (conclusion) ([2]; buffer solutions below pH 6.8 and purified water): high solubility
- Final pH ([2]; 0.01 mol/L HCl): 2.863
- Final pH ([2]; pH 3.8 buffer solution): 3.928
- Final pH ([2]; pH 4.5 buffer solution): 4.560
- Final pH ([2]; pH 5.5 buffer solution): 5.528
- Final pH ([2]; pH 6.0 buffer solution): 5.708
- Final pH ([2]; pH 6.8 buffer solution): 6.625
- Final pH ([2]; pH 7.4 buffer solution): 7.142
- Final pH ([2]; water): 5.444
- Evaluation of dissolution property ([2]; merged cell: 0.1 mol/L HCl, 0.01 mol/L HCl, pH 3.8, 4.5, 5.5, 6.0 buffer solutions and water): High solubility
- Evaluation of dissolution property ([2]; merged cell: pH 6.8 and pH 7.4 buffer solutions): Low solubility
- Solubility (2 hours) ([2]; pH 3.8 buffer solution): 1.612 mg/mL
- Solubility (24 hours) ([2]; pH 3.8 buffer solution): 1.681 mg/mL
- Solubility (2 hours) ([2]; pH 4.5 buffer solution): 1.167 mg/mL
- Solubility (24 hours) ([2]; pH 4.5 buffer solution): 1.186 mg/mL
- Solubility (2 hours) ([2]; pH 5.5 buffer solution): 0.916 mg/mL
- Solubility (24 hours) ([2]; pH 5.5 buffer solution): 0.863 mg/mL
- Solubility (2 hours) ([2]; pH 6.0 buffer solution): 0.699 mg/mL
- Solubility (24 hours) ([2]; pH 6.0 buffer solution): 0.328 mg/mL
- Solubility (2 hours) ([2]; pH 6.8 buffer solution): 0.260 mg/mL
- Solubility (24 hours) ([2]; pH 6.8 buffer solution): 0.071 mg/mL
- Solubility (2 hours) ([2]; pH 7.4 buffer solution): 0.081 mg/mL
- Solubility (24 hours) ([2]; pH 7.4 buffer solution): 0.040 mg/mL
- Solubility (2 hours) ([2]; water): 0.720 mg/mL
- Solubility (24 hours) ([2]; water): 0.646 mg/mL
- Stability compared with the crystal form D of the maleate of the compound of formula (I) [3]: better
- Related substance at relative retention time 0.24 ([3]; 40° - 75% RH - 10 days): 0.03
- Related substance at relative retention time 0.69 ([3]; 40° - 75% RH - 10 days): 0.06
- Related substance at relative retention time 0.88 ([3]; 40° - 75% RH - 10 days): 0.04
- Related substance at relative retention time 0.92 ([3]; 40° - 75% RH - 10 days): 0.02
- Related substance at relative retention time 1.24 ([3]; 40° - 75% RH - 10 days): 0.14
- Related substance at relative retention time 1.30 ([3]; 40° - 75% RH - 10 days): 0.17
- Related substance at relative retention time 1.81 ([3]; 40° - 75% RH - 10 days): 0.03
- Total impurity ([3]; 40° - 75% RH - 10 days): 0.53
- Related substance at relative retention time 0.24 ([3]; 60° - 10 days): 0.02
- Related substance at relative retention time 0.69 ([3]; 60° - 10 days): 0.26
- Related substance at relative retention time 0.88 ([3]; 60° - 10 days): 0.03
- Related substance at relative retention time 1.24 ([3]; 60° - 10 days): 0.11
- Related substance at relative retention time 1.30 ([3]; 60° - 10 days): 0.17
- Related substance at relative retention time 1.81 ([3]; 60° - 10 days): 0.05
- Related substance at relative retention time 1.89 ([3]; 60° - 10 days): 0.05
- Total impurity ([3]; 60° - 10 days): 0.69
- Related substance at relative retention time 0.24 ([3]; 92.5% RH - 10 days): 0.02
- Related substance at relative retention time 0.69 ([3]; 92.5% RH - 10 days): 0.04
- Related substance at relative retention time 0.88 ([3]; 92.5% RH - 10 days): 0.02
- Related substance at relative retention time 1.24 ([3]; 92.5% RH - 10 days): 0.12
- Related substance at relative retention time 1.30 ([3]; 92.5% RH - 10 days): 0.17
- Total impurity ([3]; 92.5% RH - 10 days): 0.37
- Related substance at relative retention time 0.24 ([3]; Illumination - 10 days): 0.02
- Related substance at relative retention time 0.69 ([3]; Illumination - 10 days): 0.04
- Related substance at relative retention time 0.81 ([3]; Illumination - 10 days): 0.04
- Related substance at relative retention time 0.92 ([3]; Illumination - 10 days): 0.05
- Related substance at relative retention time 1.15 ([3]; Illumination - 10 days): 0.02
- Related substance at relative retention time 1.17 ([3]; Illumination - 10 days): 0.03
- Related substance at relative retention time 1.24 ([3]; Illumination - 10 days): 0.11
- Related substance at relative retention time 1.30 ([3]; Illumination - 10 days): 0.17
- Total impurity ([3]; Illumination - 10 days): 0.40
- Related substance at relative retention time 0.24 ([3]; Initial sample): 0.02
- Related substance at relative retention time 0.69 ([3]; Initial sample): 0.04
- Related substance at relative retention time 0.88 ([3]; Initial sample): 0.02
- Related substance at relative retention time 0.92 ([3]; Initial sample): 0.02
- Related substance at relative retention time 1.24 ([3]; Initial sample): 0.12
- Related substance at relative retention time 1.30 ([3]; Initial sample): 0.17
- Total impurity ([3]; Initial sample): 0.42
- Change of crystal form ([3]; acceleration (40° C./75% RH)): not changed
- Change of crystal form ([3]; high humidity (92.5% RH)): not changed
- Change of crystal form ([3]; high temperature (60° C.)): not changed
- Change of crystal form ([3]; illumination): not changed
- Formation of degradation impurity (conclusion) ([3]; illumination, high temperature, high humidity, acceleration): produces a degradation impurity only under the condition of high temperature

SMILES: COc1cc2ncnc(Nc3cccc(Cl)c3F)c2cc1N1CC2(CN(C)C2)OC1=O.Cc1ccc(S(=O)(=O)O)cc1
- solubility at 2 h ([2]; 0.01 mol/L HCl, pH 2, simulated gastric fluid): 7440 µg/mL
- solubility at 2 h [2, 4]: > 10000 µg/mL
- solubility at 24 h [2, 4]: > 10000 µg/mL
- solubility at 24 h ([2]; pH 5.5 buffer solution, pH 5.5, aqueous buffer): 1300 µg/mL
- solubility at 2 h [2, 5]: 354 µg/mL
- solubility at 24 h [2, 5]: 73 µg/mL
- solubility at 2 h [2, 6]: 99 µg/mL
- solubility at 24 h [2, 6]: 22 µg/mL
- solubility at 24 h ([2]; water): 1140 µg/mL
